Each molecule was assayed against IDH1 R132H (Homo sapiens, UniProt O75874, R132H) (assay: Assay for IDH1 R132H inhibitors (NADPH/aKG, resazurin detection)). Conditions: enzyme assay of Example 12; read-out: IDH1R132H IC50.
Type: biochemical
In short: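 Compound added to substrate mix (8 uM NADPH, 2 mM aKG), then enzyme mix (0.2 μg/ml IDH1 R132H); 50 min RT in 20 mM Tris pH 7.5, 150 mM NaCl, 10 mM MgCl2, 0.03% BSA. Resazurin detection mix (30 μM) 5 min RT; resorufin fluorescence Ex544/Em590.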

Chain of IDH1 R132H (O75874 whole entry R132H): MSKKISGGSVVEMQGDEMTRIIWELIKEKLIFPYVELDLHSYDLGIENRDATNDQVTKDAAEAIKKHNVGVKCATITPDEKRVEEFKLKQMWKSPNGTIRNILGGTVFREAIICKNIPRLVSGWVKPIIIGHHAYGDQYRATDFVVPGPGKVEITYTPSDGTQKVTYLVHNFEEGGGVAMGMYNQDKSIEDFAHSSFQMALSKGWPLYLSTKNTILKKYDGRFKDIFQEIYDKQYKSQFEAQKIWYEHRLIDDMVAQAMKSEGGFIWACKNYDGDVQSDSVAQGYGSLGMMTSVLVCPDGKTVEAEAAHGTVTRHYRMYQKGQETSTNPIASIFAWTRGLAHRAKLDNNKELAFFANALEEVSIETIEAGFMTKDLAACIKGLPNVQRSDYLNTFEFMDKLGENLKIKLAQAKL

SMILES	IC50 [nM]
N#Cc1cc(-c2cccc3cnccc23)c(C2CC2)nc1N1CCN(C(=O)C2CC2)C(CC(F)(F)F)C1 (stereo not shown) [Compound 423, 2-(4-(cyclopropanecarbonyl)-3-(2,2,2-trifluoroethyl)piperazin-1-yl)-6-cyclopropyl-5-(isoquinolin-5-yl)nicotinonitrile]	500 to 1000
COCCC(=O)N1CCN(c2nc(C3CC3)c(-c3cccc4c(O)ncnc34)cc2C#N)C[C@H]1C [Compound 430]	1000 to 10000
CCOC(=O)[C@@H]1C[C@H]1C(=O)N1CCN(c2nc(C3CC3)c(-c3cccc4cnccc34)cc2C#N)C[C@H]1C [Compound 435, (1R,2R)-ethyl 2-((R)-4-(3-cyano-6-cyclopropyl-5-(isoquinolin-5-yl)pyridin-2-yl)-2-methylpiperazine-1-carbonyl)cyclopropanecarboxylate]	500 to 1000
COCCC(=O)N1CCN(c2nc(C3CC3)c(-c3cccc4nonc34)cc2C#N)C[C@H]1C [Compound 437, (R)-5-benzo[1,2,5]oxadiazol-4-yl-6-cyclopropyl-2-[4-(3-methoxy-propionyl)-3-methyl-piperazin-1-yl]-nicotinonitrile]	500 to 1000
C=CS(=O)(=O)N(c1cccc(-c2cc(C#N)c(N3CCN(C(=O)CCOC)[C@H](C)C3)nc2C2CC2)c1)S(=O)(=O)C=C [Compound 440, (R)—N-(3-(5-cyano-2-cyclopropyl-6-(4-(3-methoxypropanoyl)-3-methylpiperazin-1-yl)pyridin-3-yl)phenyl)-N-(vinylsulfonyl)ethenesulfonamide]	< 500
COCCC(=O)N1CCN(c2nc(C3CC3)c(-c3cccc(NC(=O)/C=C/CN(C)C)c3)cc2C#N)C[C@H]1C [Compound 441, (R,E)-N-(3-(5-cyano-2-cyclopropyl-6-(4-(3-methoxypropanoyl)-3-methylpiperazin-1-yl)pyridin-3-yl)phenyl)-4-(dimethylamino)but-2-enamide]	500 to 1000
CCC(=O)Nc1cccc(-c2cc(C#N)c(N3CCN(C(=O)C4CC4)[C@H](C4CC4)C3)nc2C2CC2)c1 [Compound 450, (R)—N-(3-(5-cyano-6-(4-(cyclopropanecarbonyl)-3-cyclopropylpiperazin-1-yl)-2-cyclopropylpyridin-3-yl)phenyl)propionamide]	500 to 1000
COCCC(=O)N1CCN(c2nc(C3CC3)c(-c3cccc(N(C)C(=O)C(F)F)c3)cc2C#N)C[C@H]1C [Compound 455]	500 to 1000
COCCC(=O)N1CCN(c2nc(C3CC3)c(-c3cccc4c3CN(C)C4=O)cc2C#N)C[C@H]1C [Compound 460, (R)-6-Cyclopropyl-2-(4-(3-methoxypropanoyl)-3-methylpiperazin-1-yl)-5-(2-methyl-1-oxoisoindolin-4-yl)nicotinonitrile]	< 500
C[C@@H]1CN(c2nc(C3CC3)c(-c3cccc4c3CN(C)C4=O)cc2C#N)CCN1C(=O)C1CC1 [Compound 461, (R)-2-(4-(cyclopropanecarbonyl)-3-methylpiperazin-1-yl)-6-cyclopropyl-5-(2-methyl-1-oxoisoindolin-4-yl)nicotinonitrile]	500 to 1000
N#Cc1cc(-c2cccc3c2CNC3=O)c(C2CC2)nc1N1CCN(C(=O)C2CC2)[C@H](C2CC2)C1 [Compound 464, (R)-2-(4-(Cyclopropanecarbonyl)-3-cyclopropylpiperazin-1-yl)-6-cyclopropyl-5-(1-oxoisoindolin-4-yl)nicotinonitrile]	500 to 1000
C[C@@H]1CN(c2nc(C3CC3)c(-c3ccc4ncoc4c3)cc2C#N)CCN1C(=O)C1CC1 [Compound 467, (R)-5-(benzo[d]oxazol-6-yl)-2-(4-(cyclopropanecarbonyl)-3-methylpiperazin-1-yl)-6-cyclopropylnicotinonitrile]	500 to 1000
Cc1cc2c(-c3cc(C#N)c(N4CCN(C(=O)CC(F)(F)F)[C@H](C5CC5)C4)nc3C3CC3)cccc2cn1 [Compound 471, (R)-6-cyclopropyl-2-(3-cyclopropyl-4-(3,3,3-trifluoropropanoyl)piperazin-1-yl)-5-(3-methylisoquinolin-5-yl)nicotinonitrile]	< 500
COCCC(=O)N1CCN(c2nc(C3CC3)c(-c3cnc(OC)c4ccccc34)cc2C#N)C[C@H]1C [Compound 474, (R)-6-cyclopropyl-5-(1-methoxy-isoquinolin-4-yl)-2-[4-(3-methoxy-propionyl)-3-methyl-piperazin-1-yl]-nicotinonitrile]	< 500
N#Cc1cc(-c2cccc3cnccc23)c(C2CC2)nc1N1CCN(C(=O)C2CC2)CC(F)C1 (stereo not shown) [Compound 477, 2-(4-(cyclopropanecarbonyl)-6-fluoro-1,4-diazepan-1-yl)-6-cyclopropyl-5-(isoquinolin-5-yl)nicotinonitrile]	500 to 1000
Cc1c(C#N)c(N2CCN(C(=O)C3CC3)[C@H](C3CC3)C2)nc(C2CC2)c1-c1cn[nH]c1 [Compound 478, (R)-2-(4-(cyclopropanecarbonyl)-3-cyclopropylpiperazin-1-yl)-6-cyclopropyl-4-methyl-5-(1H-pyrazol-4-yl)nicotinonitrile]	500 to 1000

SMILES	IC50 [nM]
N#Cc1cc(-c2cn[nH]c2)c(C2CC2)nc1N1CCN(C(=O)C2CC2)[C@H](C2CC2)C1 [Compound 479, (R)-2-(4-(cyclopropanecarbonyl)-3-cyclopropylpiperazin-1-yl)-6-cyclopropyl-5-(1H-pyrazol-4-yl)nicotinonitrile]	500 to 1000
C[C@@H]1CN(c2nc(C3CC3)c(-c3cccc4ncoc34)cc2C#N)CCN1C(=O)C1CC1 [Compound 482, (R)-5-(benzo[d]oxazol-7-yl)-2-(4-(cyclopropanecarbonyl)-3-methylpiperazin-1-yl)-6-cyclopropylnicotinonitrile]	< 500
CC1CN(c2nc(C3CC3)c(-c3cccc4cnccc34)cc2C#N)CC(F)CN1C(=O)C1CC1 (stereo not shown) [Compound 484, 2-(4-(cyclopropanecarbonyl)-6-fluoro-3-methyl-1,4-diazepan-1-yl)-6-cyclopropyl-5-(isoquinolin-5-yl)nicotinonitrile]	500 to 1000
N#CCn1cc(-c2cc(C#N)c(N3CCN(C(=O)C4CC4)[C@H](C4CC4)C3)nc2C2CC2)cn1 [Compound 486, (R)-5-(1-(cyanomethyl)-1H-pyrazol-4-yl)-2-(4-(cyclopropanecarbonyl)-3-cyclopropylpiperazin-1-yl)-6-cyclopropylnicotinonitrile]	500 to 1000
N#Cc1cc(-c2ccc3ncsc3c2)c(C2CC2)nc1N1CCN(C(=O)C2CC2)[C@H](C2CC2)C1 [Compound 487, (R)-5-(benzo[d]thiazol-6-yl)-2-(4-(cyclopropanecarbonyl)-3-cyclopropylpiperazin-1-yl)-6-cyclopropylnicotinonitrile]	< 500
COC(=O)N1CCN(c2nc(C3CC3)c(-c3cccc4cnccc34)cc2C#N)C[C@H]1C1CC1 [Compound 489, (R)-methyl 4-(3-cyano-6-cyclopropyl-5-(isoquinolin-5-yl)pyridin-2-yl)-2-cyclopropylpiperazine-1 carboxylate]	500 to 1000
N#Cc1cc(-c2cnn(CCO)c2)c(C2CC2)nc1N1CCN(C(=O)C2CC2)[C@H](C2CC2)C1 [Compound 490, (R)-2-(4-(cyclopropanecarbonyl)-3-cyclopropylpiperazin-1-yl)-6-cyclopropyl-5-(1-(2-hydroxyethyl)-1H-pyrazol-4-yl)nicotinonitrile]	500 to 1000
N#Cc1cc(-c2cnn(C3CCC(O)C3)c2)c(C2CC2)nc1N1CCN(C(=O)C2CC2)[C@H](C2CC2)C1 (stereo partly drawn) [Compound 493, 2-((R)-4-(cyclopropanecarbonyl)-3-cyclopropylpiperazin-1-yl)-6-cyclopropyl-5-(1-(3-hydroxycyclopentyl)-1H-pyrazol-4-yl)nicotinonitrile]	500 to 1000
N#Cc1cncc(-c2cc(C#N)c(N3CCN(C(=O)C4CC4)[C@H](C4CC4)C3)nc2C2CC2)c1 [Compound 494, (R)-6-(4-(cyclopropanecarbonyl)-3-cyclopropylpiperazin-1-yl)-2-cyclopropyl-[3,3′-bipyridine]-5,5′-dicarbonitrile]	< 500
N#Cc1cc(-c2cnnc3ccccc23)c(C2CC2)nc1N1CCN(C(=O)C2CC2)[C@H](C2CC2)C1 [Compound 495, (R)-5-(cinnolin-4-yl)-2-(4-(cyclopropanecarbonyl)-3-cyclopropylpiperazin-1-yl)-6-cyclopropylnicotinonitrile]	500 to 1000
Cc1nccc2c(-c3cc(C#N)c(N4CCN(C(=O)C5CC5)[C@H](C5CC5)C4)nc3C3CC3)cccc12 [Compound 497, (R)-2-(4-(cyclopropanecarbonyl)-3-cyclopropylpiperazin-1-yl)-6-cyclopropyl-5-(1-methylisoquinolin-5-yl)nicotinonitrile]	< 500
N#Cc1cc(-c2cnn(CC(N)=O)c2)c(C2CC2)nc1N1CCN(C(=O)C2CC2)[C@H](C2CC2)C1 [Compound 501, (R)-2-(4-(5-cyano-6-(4-(cyclopropanecarbonyl)-3-cyclopropylpiperazin-1-yl)-2-cyclopropylpyridin-3-yl)-1H-pyrazol-1-yl)acetamide]	500 to 1000
CS(=O)(=O)n1cc(-c2cc(C#N)c(N3CCN(C(=O)C4CC4)[C@H](C4CC4)C3)nc2C2CC2)cn1 [Compound 502, (R)-2-(4-(cyclopropanecarbonyl)-3-cyclopropylpiperazin-1-yl)-6-cyclopropyl-5-(1-(methylsulfonyl)-1H-pyrazol-4-yl)nicotinonitrile]	500 to 1000
N#Cc1cc(-c2cnc3cnccn23)c(C2CC2)nc1N1CCN(C(=O)C2CC2)[C@H](C2CC2)C1 [Compound 503, (R)-2-(4-(cyclopropanecarbonyl)-3-cyclopropylpiperazin-1-yl)-6-cyclopropyl-5-(imidazo[1,2-a]pyrazin-3-yl)nicotinonitrile]	< 500
N#Cc1cc(-c2ccc3c(c2)C(=O)C(=O)N3)c(C2CC2)nc1N1CCN(C(=O)C2CC2)[C@H](C2CC2)C1 [Compound 504, (R)-2-(4-(cyclopropanecarbonyl)-3-cyclopropylpiperazin-1-yl)-6-cyclopropyl-5-(2,3-dioxoindolin-5-yl)nicotinonitrile]	500 to 1000
